# Laboratory results reported in PubChem BioAssay AID328 (DTP/NCI, 2004).
# Several values for one entry are separate records, joined by “and”; a condition that tells them apart may be missing. Equal values may be shown once. Toxic doses and inconclusive results are not listed.
# Test system: BDF1 mice, P388 leukemia ip, median survival T/C
# Test: NCI In Vivo Anticancer Drug Screen. Data for tumor model P388 Leukemia (intraperitoneal) in B6D2F1 (BDF1) mice
# Settings: endpoint: median survival time, higher = longer survival
# Procedure: The antitumor activity of compounds was measured in mice bearing transplantable tumors. Survival or tumor size were measured and the results are expressed as the measurement made in the treated group (T) divided by the measurement made in the vehicle treated control group (C). The tumor model used in this assay is P388 Leukemia (intraperitoneal) in B6D2F1 (BDF1) mice
# [1] = dose: 50.0 mg/kg/injection, schedule: Q04DX003 (ip), vehicle: saline with Tween-80
# [2] = dose: 100.0 mg/kg/injection, schedule: Q04DX003 (ip), vehicle: saline with Tween-80
# [3] = dose: 200.0 mg/kg/injection, schedule: Q04DX003 (ip), vehicle: saline with Tween-80
# [4] = dose: 50.0 mg/kg/injection, schedule: Q01DX009 (ip), vehicle: saline with Tween-80
# [5] = dose: 100.0 mg/kg/injection, schedule: Q01DX009 (ip), vehicle: saline with Tween-80
# [6] = dose: 200.0 mg/kg/injection, schedule: Q01DX009 (ip), vehicle: saline with Tween-80
# [7] = dose: 400.0 mg/kg/injection, schedule: Q04DX003 (ip), vehicle: saline with Tween-80
# [8] = dose: 100.0 mg/kg/injection, schedule: Q01DX009 (ip), vehicle: Klucel (hydroxypropylcellulose) (HPC)
# [9] = dose: 100.0 mg/kg/injection, schedule: Q04DX003 (ip), vehicle: Klucel (hydroxypropylcellulose) (HPC)
# [10] = dose: 200.0 mg/kg/injection, schedule: Q01DX009 (ip), vehicle: Klucel (hydroxypropylcellulose) (HPC)
# [11] = dose: 200.0 mg/kg/injection, schedule: Q04DX003 (ip), vehicle: Klucel (hydroxypropylcellulose) (HPC)
# [12] = dose: 400.0 mg/kg/injection, schedule: Q01DX009 (ip), vehicle: Klucel (hydroxypropylcellulose) (HPC)
# [13] = dose: 400.0 mg/kg/injection, schedule: Q04DX003 (ip), vehicle: Klucel (hydroxypropylcellulose) (HPC)
structure (smiles),measurement,setting,value
N#CS/C=C\C(N)=O,T/C,"dose: 1.5 mg/kg/injection, schedule: Q01DX009 (ip), vehicle: Klucel (hydroxypropylcellulose) (HPC)",100 % of control
same,T/C,"dose: 1.5 mg/kg/injection, schedule: Q04DX003 (ip), vehicle: Klucel (hydroxypropylcellulose) (HPC)",95 % of control
same,T/C,"dose: 3.0 mg/kg/injection, schedule: Q01DX009 (ip), vehicle: Klucel (hydroxypropylcellulose) (HPC)",91 % of control
same,T/C,"dose: 3.0 mg/kg/injection, schedule: Q04DX003 (ip), vehicle: Klucel (hydroxypropylcellulose) (HPC)",95 % of control
same,T/C,"dose: 6.0 mg/kg/injection, schedule: Q01DX009 (ip), vehicle: Klucel (hydroxypropylcellulose) (HPC)",89 % of control and 91 % of control
same,T/C,"dose: 6.0 mg/kg/injection, schedule: Q04DX003 (ip), vehicle: Klucel (hydroxypropylcellulose) (HPC)",100 % of control
same,T/C,"dose: 6.25 mg/kg/injection, schedule: Q04DX003 (ip), vehicle: Klucel (hydroxypropylcellulose) (HPC)",90 % of control
same,T/C,"dose: 12.5 mg/kg/injection, schedule: Q04DX003 (ip), vehicle: Klucel (hydroxypropylcellulose) (HPC)",100 % of control
O=c1[nH]cnc2c1ncn2C1OC(CO)C(O)C1O (stereo not given),T/C,"dose: 100.0 mg/kg/injection, schedule: Q01DX009 (ip), vehicle: saline",99 % of control
same,T/C,"dose: 200.0 mg/kg/injection, schedule: Q01DX009 (ip), vehicle: saline",100 % of control
same,T/C,"dose: 400.0 mg/kg/injection, schedule: Q01DX009 (ip), vehicle: saline",103 % of control
S=C(Nc1ccccc1)NC1CCCCCC1,T/C,"dose: 75.0 mg/kg/injection, schedule: Q04DX003 (ip), vehicle: Klucel (hydroxypropylcellulose) (HPC)",90 % of control
same,T/C,"dose: 150.0 mg/kg/injection, schedule: Q04DX003 (ip), vehicle: Klucel (hydroxypropylcellulose) (HPC)",100 % of control
same,T/C,"dose: 300.0 mg/kg/injection, schedule: Q04DX003 (ip), vehicle: Klucel (hydroxypropylcellulose) (HPC)",110 % of control
CC(Br)C(=O)NCC(=O)O (stereo not given),T/C,[1],90 % of control
same,T/C,[2],95 % of control
same,T/C,[3],100 % of control
Cc1nc2ccccc2c(=O)n1/N=C/c1ccco1,T/C,[4],107 % of control
same,T/C,[5],90 % of control
Cc1c(C#N)c2n(c1C)CCCC(=O)N2,T/C,"dose: 25.0 mg/kg/injection, schedule: Q01DX009 (ip), vehicle: saline with Tween-80",95 % of control
same,T/C,[4],109 % of control
same,T/C,[1],91 % of control
same,T/C,[5],104 % of control
same,T/C,[2],91 % of control
same,T/C,[6],100 % of control
same,T/C,[3],87 % of control
same,T/C,[7],91 % of control
CC(=O)OC1CCC2(C)CCCC(O)C2(O)C1 (stereo not given),T/C,[5],103 % of control
same,T/C,"dose: 100.0 mg/kg/injection, schedule: Q04DX003 (ip), vehicle: saline",110 % of control
same,T/C,"dose: 200.0 mg/kg/injection, schedule: Q04DX003 (ip), vehicle: saline",90 % of control
same,T/C,"dose: 400.0 mg/kg/injection, schedule: Q01DX009 (ip), vehicle: saline with Tween-80",103 % of control
same,T/C,"dose: 400.0 mg/kg/injection, schedule: Q04DX003 (ip), vehicle: saline",110 % of control
O=C(/C=C/c1ccc(OCc2ccccc2)cc1)c1ccccc1Br,T/C,[4],96 % of control
same,T/C,[5],107 % of control
same,T/C,[6],105 % of control
CN(C)c1ccc(-c2c3ccccc3nc3ccccc23)cc1,T/C,[4],107 % of control
same,T/C,[5],115 % of control
same,T/C,[6],106 % of control
Nc1nccnc1C(=O)O,T/C,"dose: 12.5 mg/kg/injection, schedule: Q01DX009 (ip), vehicle: water",102 % of control
same,T/C,"dose: 25.0 mg/kg/injection, schedule: Q01DX009 (ip), vehicle: water",109 % of control
same,T/C,"dose: 50.0 mg/kg/injection, schedule: Q01DX009 (ip), vehicle: water",117 % of control
same,T/C,"dose: 100.0 mg/kg/injection, schedule: Q01DX009 (ip), vehicle: water",105 % of control
same,T/C,"dose: 200.0 mg/kg/injection, schedule: Q04DX003 (ip), vehicle: water",101 % of control
same,T/C,"dose: 300.0 mg/kg/injection, schedule: Q04DX003 (ip), vehicle: water",110 % of control
same,T/C,"dose: 400.0 mg/kg/injection, schedule: Q01DX009 (ip), vehicle: water",109 % of control
same,T/C,"dose: 400.0 mg/kg/injection, schedule: Q04DX003 (ip), vehicle: water",105 % of control
same,T/C,"dose: 600.0 mg/kg/injection, schedule: Q04DX003 (ip), vehicle: water",100 % of control
CCOC(=O)c1c[nH]c(=O)c([N+](=O)[O-])c1O,T/C,[5],96 % of control
same,T/C,[2],108 % of control
same,T/C,[3],95 % of control
same,T/C,[7],112 % of control
CNC(=S)NNc1ccccc1,T/C,"dose: 50.0 mg/kg/injection, schedule: Q01DX009 (ip), vehicle: Klucel (hydroxypropylcellulose) (HPC)",96 % of control
same,T/C,[8],91 % of control
same,T/C,[9],90 % of control
same,T/C,[10],95 % of control
same,T/C,[11],95 % of control
same,T/C,[12],95 % of control
same,T/C,[13],100 % of control
O=C(Nc1ccccc1)Nn1cnc2ccccc2c1=O,T/C,[2],90 % of control
same,T/C,[3],100 % of control
same,T/C,[7],100 % of control
CCOCCOC(=O)Nc1ccc(C)c(NC(=O)OCCOCC)c1,T/C,[4],93 % of control
same,T/C,[5],90 % of control
same,T/C,[6],100 % of control
N#Cc1c(SCc2ccc(Cl)cc2)nsc1Nc1ccc(Cl)cc1,T/C,[4],108 % of control
O=c1[nH]c(=S)c2c3c(sc2[nH]1)CCCC3,T/C,"dose: 75.0 mg/kg/injection, schedule: Q04DX003 (ip), vehicle: saline sonified",100 % of control
same,T/C,"dose: 150.0 mg/kg/injection, schedule: Q04DX003 (ip), vehicle: saline sonified",100 % of control
same,T/C,"dose: 300.0 mg/kg/injection, schedule: Q04DX003 (ip), vehicle: saline sonified",100 % of control
CC(=O)C1=C(O)C2C3c4c[nH]c5cccc(c45)CC3C(C)(C)N2C1=O (stereo not given),T/C,"dose: 0.5 mg/kg/injection, schedule: Q01DX010 (ip), vehicle: saline",100 % of control
same,T/C,"dose: 1.0 mg/kg/injection, schedule: Q01DX010 (ip), vehicle: saline",100 % of control
same,T/C,"dose: 2.0 mg/kg/injection, schedule: Q01DX010 (ip), vehicle: saline",100 % of control
same,T/C,"dose: 4.0 mg/kg/injection, schedule: Q01DX010 (ip), vehicle: saline",110 % of control
CCOC12CC(OC(=O)N1)C(C)C1OC1(C)C(OC(=O)C(C)N(C)C(C)=O)CC(=O)N(C)c1cc(cc(OC)c1Cl)C/C(C)=C/C=CC2OC (stereo not given),T/C,"dose: 1.6 micrograms/kg/injection, schedule: Q01DX009 (ip), vehicle: saline + alcohol",99 % of control
same,T/C,"dose: 3.1 micrograms/kg/injection, schedule: Q01DX009 (ip), vehicle: saline + alcohol",99 % of control
same,T/C,"dose: 6.2 micrograms/kg/injection, schedule: Q01DX009 (ip), vehicle: saline + alcohol",99 % of control
same,T/C,"dose: 12.5 micrograms/kg/injection, schedule: Q01DX009 (ip), vehicle: saline + alcohol",101 % of control
same,T/C,"dose: 25.0 micrograms/kg/injection, schedule: Q01DX009 (ip), vehicle: saline + alcohol",116 % of control
same,T/C,"dose: 50.0 micrograms/kg/injection, schedule: Q01DX009 (ip), vehicle: saline + alcohol",98 % of control
same,T/C,"dose: 100.0 micrograms/kg/injection, schedule: Q01DX009 (ip), vehicle: saline + alcohol",105 % of control
same,T/C,"dose: 200.0 micrograms/kg/injection, schedule: Q01DX009 (ip), vehicle: saline + alcohol",98 % of control
same,T/C,"dose: 400.0 micrograms/kg/injection, schedule: Q01DX009 (ip), vehicle: saline + alcohol",100 % of control
CC1NC(=O)NC1CCCCCC(=O)O (stereo not given),T/C,[8],95 % of control
same,T/C,[9],116 % of control
same,T/C,[10],90 % of control
same,T/C,[11],104 % of control
same,T/C,[12],95 % of control
same,T/C,[13],91 % of control
C[n+]1c2cc(N)ccc2cc2ccc(N)cc21,T/C,"dose: 8.0 mg/kg/injection, schedule: Q01DX009 (ip), vehicle: saline",152 % of control
same,T/C,"dose: 12.0 mg/kg/injection, schedule: Q01DX009 (ip), vehicle: saline",167 % of control
COc1ccccc1NC(=O)Nc1ccc(N(C)C)cc1,T/C,[2],90 % of control
same,T/C,[3],118 % of control
same,T/C,[7],90 % of control
O=[N+]([O-])c1ccc(O)c(C2N(Cc3ccc(N(CCCl)CCCl)cc3)CCCN2Cc2ccc(N(CCCl)CCCl)cc2)c1,T/C,"dose: 12.5 mg/kg/injection, schedule: Q01DX010 (ip), vehicle: carboxymethylcellulose (CMC)",120 % of control
same,T/C,"dose: 25.0 mg/kg/injection, schedule: Q01DX010 (ip), vehicle: carboxymethylcellulose (CMC)",120 % of control
same,T/C,"dose: 100.0 mg/kg/injection, schedule: Q01DX010 (ip), vehicle: carboxymethylcellulose (CMC)",165 % of control
